Laboratory results: paper PMC11861696, “The First K^+-Channel Blocker Described from Tityus fasciolatus Venom: The Purification, Molecular Cloning, and Functional Characterization of α-KTx4.9 (Tf5)” (Toxins, 2025)
Positions of bridges follow the written chain, without caps; N, C: chain ends. Residues, ends and D or L forms follow the SMILES beside them. No end group written: not given here.

Columns and labels:
Kv1.2 [1] = target: T1, Kv1.2 (Homo sapiens, UniProt P16389); details: cited from earlier work
T1 construct: expressed in transfected cells; host or cells: HEK293T
T1 sequence (P16389 whole entry): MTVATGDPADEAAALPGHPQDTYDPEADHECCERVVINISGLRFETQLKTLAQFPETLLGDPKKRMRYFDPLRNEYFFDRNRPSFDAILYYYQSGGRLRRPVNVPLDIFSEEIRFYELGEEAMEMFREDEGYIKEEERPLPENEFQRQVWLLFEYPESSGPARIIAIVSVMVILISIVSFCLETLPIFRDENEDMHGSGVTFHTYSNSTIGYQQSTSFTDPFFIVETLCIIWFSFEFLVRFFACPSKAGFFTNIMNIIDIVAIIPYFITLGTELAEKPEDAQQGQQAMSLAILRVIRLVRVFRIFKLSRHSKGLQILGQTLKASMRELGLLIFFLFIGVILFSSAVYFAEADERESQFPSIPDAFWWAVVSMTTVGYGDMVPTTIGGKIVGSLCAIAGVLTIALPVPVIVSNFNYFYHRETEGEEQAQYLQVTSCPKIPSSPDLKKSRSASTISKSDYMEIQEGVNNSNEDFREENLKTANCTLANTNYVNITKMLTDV

A549 carcinoma cell = system: A549 carcinoma cell; set-up: method as in PMID 21087602; details: cited from earlier work
Kv1.3 [2] = target: T2, Kv1.3 (Mus musculus, UniProt P16390); details: cited from earlier work
T2 construct: expressed in transfected cells; host or cells: L929
T2 sequence (P16390 whole entry): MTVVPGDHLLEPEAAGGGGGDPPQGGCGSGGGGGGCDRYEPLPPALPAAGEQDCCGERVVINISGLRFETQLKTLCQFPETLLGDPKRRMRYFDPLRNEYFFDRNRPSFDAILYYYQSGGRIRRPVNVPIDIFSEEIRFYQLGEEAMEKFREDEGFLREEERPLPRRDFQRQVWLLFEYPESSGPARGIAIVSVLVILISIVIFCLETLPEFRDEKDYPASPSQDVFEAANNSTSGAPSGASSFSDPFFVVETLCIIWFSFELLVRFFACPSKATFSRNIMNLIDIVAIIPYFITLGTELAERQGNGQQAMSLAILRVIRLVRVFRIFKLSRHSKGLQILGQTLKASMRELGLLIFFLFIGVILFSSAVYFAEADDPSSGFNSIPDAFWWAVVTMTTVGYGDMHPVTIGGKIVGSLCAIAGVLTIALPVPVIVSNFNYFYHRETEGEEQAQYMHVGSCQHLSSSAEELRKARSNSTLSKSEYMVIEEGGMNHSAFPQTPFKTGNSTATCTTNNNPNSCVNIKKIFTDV

Kv1.2 [3] = target: T1, Kv1.2; assay: whole-cell patch-clamp, K+ current of Kv1.2 in HEK293T; type: cell-based
Description: (§1) Human Embrionary kidney HEK293T cells were grown in Dulbeccos’s Modified Eagle’s Medium (Sigma-Aldrich, St. Louis, MO, USA) supplemented with 10% fetal calf serum (GIBCO-ThermoFischer, Waltham, MA, USA) and 1% Antibiotic-Antimycotic® (GIBCO-ThermoFischer, Waltham, MA, USA). HEK293T cells were transfected with 1 μg of pcDNA3-Kv1.1, pcDNA3-Kv1.2, or pcDNA3-Kv1.4 and 0.1 μg of EGFP (Clontech Laboratories, Palo Alto, CA, USA) using Lipofectamine 3000 (ThermoFischer, Waltham, MA, USA). L929 cells expressing the Kv1.3 channel were grown in Dulbeccos’s Modified Eagle’s Medium (Sigma-Aldrich) supplemented with 10% fetal calf serum and 100 units/mL of penicillin and 10 µg/mL of streptomycin. Cells were grown in an incubator with a moist atmosphere and 5% CO2, at a constant temperature of 37 °C.
(§2) Potassium macrocurrents (IKs) were measured in whole-cell mode using a HEKA EPC 10 USB amplifier and controlled by PATCHMASTER software version 2x92 (HEKA Elektronik, Lambrecht, Germany). Experiments were performed at a room temperature of 23 °C. […]
(§3) The pipette (internal) solution contained (mM) KCl 140, MgCl2 2, CaCl2 1, EGTA 10, and HEPES 10, with a pH of 7.3 corrected with KOH and an experimental osmolarity of 337 mOsmol. […] The solutions’ osmolarity was measured with a K-7400S semi-micro osmometer (Knauer Berlin, Germany). […]

Kv1.3 [4] = target: T2, Kv1.3; assay: whole-cell patch-clamp, K+ current of Kv1.3 in L929; type: cell-based
Description: as §1, §2, §3

Row | Molecule | block of Kv1.2 (Kv1.2 [1]) | viability of A549 carcinoma cell cultures (A549 carcinoma cell) | block of Kv1.3 (Kv1.3 [2]) | inhibition at 0.5 µM (Kv1.2 [3]; HEK-293T, 500 nM Tf5, HEK293T transfected with pcDNA3-Kv1.2, whole-cell, stimulated at 30 mV over 200 ms from -80 mV, 23 °C, n = 9) [%] | IC50 (Kv1.2 [3]; dose–response curve, Figure 5E, n ≥5 for each concentration, read-out: Log IC50 Kv1.2 (converted)) [nM] | inhibition at 0.5 µM (Kv1.3 [4]; 500 nM Tf5, L929 cells expressing Kv1.3, whole-cell, stimulated at 30 mV over 200 ms from -80 mV, 23 °C, n = 7) [%] | IC50 (Kv1.3 [4]; dose–response curve, Figure 5F, n ≥5 for each concentration, read-out: Log IC50 Kv1.3 (converted)) [nM]
1 | MgTx: isolated from the scorpion Centruroides margaritatus, Kv1.2 and Kv1.3 blocker (TIINVKCTSPKQCLPPCKAQFGQSAGAKCMNGKCKCYPH; ends and bridges not checked; cysteine pairing not given here; UniProt P40755 1-39, looked up) | Kv1.2 and Kv1.3 blocker | reduce the viability | Kv1.2 and Kv1.3 blocker |  |  |  | 
2 | CC[C@H](C)[C@@H]1NC(=O)[C@H](C)NC(=O)[C@H](CCC(=O)O)NC(=O)[C@H](CCCCN)NC(=O)[C@@H]2CSSC[C@@H](C(=O)N[C@@H](Cc3ccc(O)cc3)C(=O)N3CCC[C@H]3C(=O)O)NC(=O)[C@H](CCCCN)NC(=O)[C@@H]3CSSC[C@H](NC(=O)[C@H](CCC(=O)O)NC(=O)[C@@H]4CCCN4C(=O)[C@H](CO)NC(=O)CNC(=O)[C@H](CCCNC(=N)N)NC(=O)[C@@H](NC(=O)[C@H](CCCNC(=N)N)NC(=O)[C@H](C)NC(=O)[C@H](CC(N)=O)NC(=O)[C@@H](NC(=O)[C@H](Cc4ccccc4)NC(=O)[C@@H](N)C(C)C)[C@@H](C)CC)CSSC[C@H](NC(=O)[C@H](CCCCN)NC(=O)CNC(=O)[C@H](C)NC(=O)[C@H](CO)NC(=O)[C@H](CCCCN)NC(=O)CNC1=O)C(=O)N[C@@H](CCSC)C(=O)N[C@@H](CC(N)=O)C(=O)NCC(=O)N[C@@H](CCCCN)C(=O)N3)C(=O)N[C@@H](CC(C)C)C(=O)N1CCC[C@H]1C(=O)N[C@@H](CCCCN)C(=O)N2 [Tf5] (H-VFINARCRGSPECLPKCKEAIGKSAGKCMNGKCKCYP-OH; disulfide 7-28, 13-33, 17-35) |  |  |  | 90.2 ± 3.78 | 15.5 | 81.8 ± 4.29 | 116
